From ChEMBL document CHEMBL4350964, “Discovery of the theobromine derivative MQS-14 that induces death of MGC-803 cells mainly through ROS-mediated mechanisms” (Eur J Med Chem, 2019)
Calls of active or inactive are those of the source. The rule behind the calls is not given here.

Tests used:
MGC-803 [1] = experiment: Cytotoxicity against human MGC803 cells assessed as growth inhibition at 20 uM after 48 hrs by MTT assay relative to control; assay type: functional; conditions: MGC-803, 48 h
HGC-27 = experiment: Cytotoxicity against human HGC27 cells assessed as reduction in cell viability by MTT assay; assay type: functional, cell-based
MGC-803 [2] = experiment: Cytotoxicity against human MGC803 cells assessed as reduction in cell viability by MTT assay; assay type: functional, cell-based
SGC-7901 = experiment: Cytotoxicity against human SGC7901 cells assessed as reduction in cell viability by MTT assay; assay type: functional, cell-based
GES1 = experiment: Cytotoxicity against human GES-1 cells assessed as reduction in cell viability by MTT assay; assay type: cell-based
[3] = Selectivity ratio of IC50 for human GES-1 cells to IC50 for human MGC803 cells; assay type: toxicity; conditions: GES-1 cells and MGC803 cells, read-out: Ratio IC50
MGC-803 [4] = experiment: Antiproliferative activity against human MGC803 cells assessed as inhibition of cell division measured after 24 hrs by CFDA-SE staining based flow cytometric analysis; assay type: functional
MGC-803 [5] = experiment: Antiproliferative activity against human MGC803 cells assessed as inhibition of cell proliferation preincubated for 16 hrs followed by Edu addition and measured after 8 hrs by Hoechst 33342 staining-based confocal laser scanning microscopic analysis; assay type: functional
MGC-803 [6] = experiment: Induction of ROS generation in human MGC803 cells after 24 hrs by DCFH-DA dye based flow cytometry; assay type: functional, cell-based
MGC-803 [7] = experiment: Cytotoxicity against human MGC803 cells assessed as reduction in cell viability at 6 uM after 24 hrs in presence of ROS scavenger N-acetyl-L-cysteine by MTT assay; assay type: functional, cell-based
Homo sapiens [8] = organism: Homo sapiens; experiment: Activation of MAPK signalling in human MGC803 cells assessed as decrease in ERK phosphorylation at 3 to 6 uM after 24 hrs by Western blot analysis; assay type: cell-based
Homo sapiens [9] = organism: Homo sapiens; experiment: Activation of MAPK signalling in human MGC803 cells assessed as increase in JNK phosphorylation at 3 to 6 uM after 24 hrs by Western blot analysis; assay type: cell-based
Homo sapiens [10] = organism: Homo sapiens; experiment: Activation of MAPK signalling in human MGC803 cells assessed as change in p38 phosphorylation at 3 to 6 uM after 24 hrs by Western blot analysis; assay type: cell-based
Homo sapiens [11] = organism: Homo sapiens; experiment: Activation of MAPK signalling in human MGC803 cells assessed as decrease in ERK phosphorylation measured after 24 hrs in presence of NAC by Western blot analysis; assay type: cell-based
Homo sapiens [12] = organism: Homo sapiens; experiment: Activation of MAPK signalling in human MGC803 cells assessed as increase in JNK phosphorylation at 6 uM measured after 24 hrs in presence of NAC by Western blot analysis; assay type: cell-based
MGC-803 [13] = experiment: Induction of DNA damage in human MGC803 cells assessed as formation of DNA long tailing at 6 uM by comet assay; assay type: functional, cell-based
MGC-803 [14] = experiment: Induction of DNA damage in human MGC803 cells assessed as formation of DNA long tailing at 6 uM in presence of NAC by comet assay; assay type: functional, cell-based
MGC-803 [15] = experiment: Induction of apoptosis in human MGC803 cells assessed as viable cells at 3 uM after 24 hrs by Annexin-V-FITC/propidium iodide staining based flow cytometry (reference value: 90.4%); assay type: functional; conditions: MGC-803, 24 h, read-out: Activity
MGC-803 [16] = experiment: Induction of apoptosis in human MGC803 cells assessed as early apoptotic cells at 3 uM after 24 hrs by Annexin-V-FITC/propidium iodide staining based flow cytometry (reference value: 6.4%); assay type: functional
MGC-803 [17] = experiment: Induction of apoptosis in human MGC803 cells assessed as late apoptotic cells at 3 uM after 24 hrs by Annexin-V-FITC/propidium iodide staining based flow cytometry (reference value: 1.8%); assay type: functional
MGC-803 [18] = experiment: Induction of apoptosis in human MGC803 cells assessed as necrotic cells at 3 uM after 24 hrs by Annexin-V-FITC/propidium iodide staining based flow cytometry (reference value: 1.5%); assay type: functional
MGC-803 [19] = experiment: Induction of apoptosis in human MGC803 cells assessed as viable cells at 6 uM after 24 hrs by Annexin-V-FITC/propidium iodide staining based flow cytometry (reference value: 90.4%); assay type: functional; conditions: MGC-803, 24 h, read-out: Activity
MGC-803 [20] = experiment: Induction of apoptosis in human MGC803 cells assessed as early apoptotic cells at 6 uM after 24 hrs by Annexin-V-FITC/propidium iodide staining based flow cytometry (reference value: 6.4%); assay type: functional
MGC-803 [21] = experiment: Induction of apoptosis in human MGC803 cells assessed as late apoptotic cells at 6 uM after 24 hrs by Annexin-V-FITC/propidium iodide staining based flow cytometry (reference value: 1.8%); assay type: functional
MGC-803 [22] = experiment: Induction of apoptosis in human MGC803 cells assessed as necrotic cells at 6 uM after 24 hrs by Annexin-V-FITC/propidium iodide staining based flow cytometry (reference value: 1.5%); assay type: functional
MGC-803 [23] = experiment: Induction of apoptosis in human MGC803 cells assessed as viable cells at 9 uM after 24 hrs by Annexin-V-FITC/propidium iodide staining based flow cytometry (reference value: 90.4%); assay type: functional; conditions: MGC-803, 24 h, read-out: Activity
MGC-803 [24] = experiment: Induction of apoptosis in human MGC803 cells assessed as early apoptotic cells at 9 uM after 24 hrs by Annexin-V-FITC/propidium iodide staining based flow cytometry (reference value: 6.4%); assay type: functional
MGC-803 [25] = experiment: Induction of apoptosis in human MGC803 cells assessed as late apoptotic cells at 9 uM after 24 hrs by Annexin-V-FITC/propidium iodide staining based flow cytometry (reference value: 1.8%); assay type: functional
MGC-803 [26] = experiment: Induction of apoptosis in human MGC803 cells assessed as necrotic cells at 9 uM after 24 hrs by Annexin-V-FITC/propidium iodide staining based flow cytometry (reference value: 1.5%); assay type: functional
MGC-803 [27] = experiment: Induction of mitochondrial dysfunction in human MGC803 cells assessed as reduction in mitochondrial potential at 3 to 9 uM after 24 hrs by JC-1 staining based flow cytometry; assay type: functional, cell-based
MGC-803 [28] = experiment: Induction of apoptosis in human MGC803 cells assessed as increase in cleaved caspase-3 expression up to 9 uM after 24 hrs by Western blot analysis; assay type: functional, cell-based
MGC-803 [29] = experiment: Induction of apoptosis in human MGC803 cells assessed as increase in cleaved caspase-7 expression up to 9 uM after 24 hrs by Western blot analysis; assay type: functional, cell-based
MGC-803 [30] = experiment: Induction of apoptosis in human MGC803 cells assessed as increase in cleaved caspase-9 expression up to 9 uM after 24 hrs by Western blot analysis; assay type: functional, cell-based
MGC-803 [31] = experiment: Induction of apoptosis in human MGC803 cells assessed as increase in cleaved PARP expression up to 9 uM after 24 hrs by Western blot analysis; assay type: functional, cell-based
MGC-803 [32] = experiment: Cytotoxicity in human MGC803 cells assessed as cell viability at 6 uM pretreated with pan-caspase inhibitor Z-VAD-fmk for 1 hr followed by compound addition and measured after 24 hrs by MTT assay relative to control; assay type: functional; conditions: read-out: Activity
MGC-803 [33] = experiment: Effect on Cleaved caspase-7 level in human MGC803 cells assessed decrease in cleaved caspase-7 expression at 6 uM after 24 hrs in presence of NAC by Western blot analysis; assay type: functional, cell-based
MGC-803 [34] = experiment: Effect on Cleaved caspase-9 level in human MGC803 cells assessed decrease in cleaved caspase-9 expression at 6 uM after 24 hrs in presence of NAC by Western blot analysis; assay type: functional, cell-based
MGC-803 [35] = experiment: Effect on Cleaved PARP level in human MGC803 cells assessed decrease in cleaved PARP expression at 6 uM after 24 hrs in presence of NAC by Western blot analysis; assay type: functional, cell-based
MGC-803 [36] = experiment: Cytotoxicity in human MGC803 cells assessed as cell viability at 6 uM after 24 hrs by MTT assay relative to control; assay type: functional; conditions: MGC-803, 24 h, read-out: Activity

## Cc1ccc(S(=O)(=O)N2CCN(C(=O)Cn3c(=O)c4c(ncn4C)n(C)c3=O)CC2)cc1
MGC-803 [1]
  inhibition at 20 µM: 20.1%

## Cn1cnc2c1c(=O)n(CC(=O)N1CCCCC1)c(=O)n2C
MGC-803 [1]
  inhibition at 20 µM: 16.8%

## CN1CCN(C(=O)Cn2c(=O)c3c(ncn3C)n(C)c2=O)CC1
MGC-803 [1]
  inhibition at 20 µM: 8.6%

## Cn1cnc2c1c(=O)n(CC(=O)N1CCC(N3CCCCC3)CC1)c(=O)n2C
MGC-803 [1]
  inhibition at 20 µM: 19.8%

## C=CC(=O)N1CCN(C(=O)Cn2c(=O)c3c(ncn3C)n(C)c2=O)CC1
MGC-803 [1]
  inhibition at 20 µM: 1.3%

## C#CCN1CCN(C(=O)Cn2c(=O)c3c(ncn3C)n(C)c2=O)CC1
MGC-803 [1]
  inhibition at 20 µM: 14.1%

## Cn1cnc2c1c(=O)n(CC(=O)N1CCC(F)(F)CC1)c(=O)n2C
MGC-803 [1]
  inhibition at 20 µM: 11.3%

## Cn1cnc2c1c(=O)n(CC(=O)N1CCN(C(=O)/C=C/c3ccccc3)CC1)c(=O)n2C
MGC-803 [1]
  inhibition at 20 µM: 9.5%

## CCCn1c(SCc2cccc(OC)c2)nc2c1c(=O)[nH]c(=O)n2C
MGC-803 [1]
  inhibition at 20 µM: 34.2%

## Cn1cnc2c1c(=O)n(CC(=O)N1CCOCC1)c(=O)n2C
MGC-803 [1]
  inhibition at 20 µM: 19.9%

## C=CCSc1nc2c(c(=O)[nH]c(=O)n2C)n1CCC
MGC-803 [1]
  inhibition at 20 µM: 5.5%

## CCCn1c(SCc2ccc(F)cc2)nc2c1c(=O)[nH]c(=O)n2C
HGC-27
  IC50: 9.7 µM
MGC-803 [1]
  inhibition at 20 µM: 86.5%
MGC-803 [2]
  IC50: 5.4 µM
SGC-7901
  IC50: 15 µM
GES1
  IC50: 14 µM
[3]
  selectivity ratio: 2 to 3

## O=c1[nH]cc(F)c(=O)[nH]1 [FLUOROURACIL]
HGC-27
  IC50: 18 µM
MGC-803 [2]
  IC50: 14 µM
SGC-7901
  IC50: 21 µM

## Cn1cnc2c1c(=O)n(CC(=O)O)c(=O)n2C
MGC-803 [1]
  inhibition at 20 µM: 0.8%

## CCCn1c(SCC(=O)Nc2ccc(C)cc2)nc2c1c(=O)[nH]c(=O)n2C
MGC-803 [1]
  inhibition at 20 µM: 42.2%

## CCCn1c(SCc2cccc(C)c2)nc2c1c(=O)[nH]c(=O)n2C
HGC-27
  IC50: 10 µM
MGC-803 [1]
  inhibition at 20 µM: 84.1%
MGC-803 [2]
  IC50: 7.2 µM
SGC-7901
  IC50: 16 µM
GES1
  IC50: 16 µM
[3]
  selectivity ratio: 2 to 3

## Cn1cnc2c1c(=O)n(CC(=O)OC(C)(C)C)c(=O)n2C
MGC-803 [1]
  inhibition at 20 µM: 17.2%

## Cn1cnc2c1c(=O)n(CC(=O)N1CCN(c3ccccc3)CC1)c(=O)n2C
MGC-803 [1]
  inhibition at 20 µM: 4.6%

## Cn1cnc2c1c(=O)n(CC(=O)N1CCN(Cc3ccc(Cl)cc3)CC1)c(=O)n2C
MGC-803 [1]
  inhibition at 20 µM: 22.5%

## CCCn1c(SCc2ccc(C(C)(C)C)cc2)nc2c1c(=O)[nH]c(=O)n2C
MGC-803 [1]
  inhibition at 20 µM: 10.3%

## CCCn1c(SCc2ccccc2C)nc2c1c(=O)[nH]c(=O)n2C
HGC-27
  IC50: 9.1 µM
MGC-803 [1]
  inhibition at 20 µM: 88.6%
MGC-803 [2]
  IC50: 6.6 µM
SGC-7901
  IC50: 15 µM
GES1
  IC50: 13 µM
MGC-803 [4]
  inhibition: Dose-dependent effect
MGC-803 [5]
  inhibition: Dose-dependent effect
MGC-803 [6]
  Activity: Dose-dependent effect
MGC-803 [7]
  Activity: inactive
Homo sapiens [8]
  Activity: Dose-dependent effect
Homo sapiens [9]
  Activity: Active
Homo sapiens [10]
  Activity: Active
Homo sapiens [11]
  Activity: inactive
Homo sapiens [12]
  Activity: inactive
MGC-803 [13]
  Activity: Active
MGC-803 [14]
  Activity: inactive
MGC-803 [15]
  viability at 3 µM: 71.5%
MGC-803 [16]
  Activity: 25.4%
MGC-803 [17]
  Activity: 1.7%
MGC-803 [18]
  Activity: 1.5%
MGC-803 [19]
  viability at 6 µM: 55%
MGC-803 [20]
  Activity: 41.9%
MGC-803 [21]
  Activity: 2.4%
MGC-803 [22]
  Activity: 0.7%
MGC-803 [23]
  viability at 9 µM: 23.1%
MGC-803 [24]
  Activity: 44%
MGC-803 [25]
  Activity: 32%
MGC-803 [26]
  Activity: 0.9%
MGC-803 [27]
  Activity: Dose-dependent effect
MGC-803 [28]
  Activity: Active
MGC-803 [29]
  Activity: Active
MGC-803 [30]
  Activity: Active
MGC-803 [31]
  Activity: Active
MGC-803 [32]
  viability at 6 µM: 93%
MGC-803 [33]
  Activity: Active
MGC-803 [34]
  Activity: Active
MGC-803 [35]
  Activity: Active
[3]
  selectivity ratio: 2 to 3
MGC-803 [36]
  viability at 6 µM: 66%

## Cn1cnc2c1c(=O)n(CC(=O)N1CCN(C(=O)OC(C)(C)C)CC1)c(=O)n2C
MGC-803 [1]
  inhibition at 20 µM: 20%

## Cn1cnc2c1c(=O)n(CC(=O)N1CCSCC1)c(=O)n2C
MGC-803 [1]
  inhibition at 20 µM: 5.6%

## CCCn1c(SCc2ccc([N+](=O)[O-])cc2)nc2c1c(=O)[nH]c(=O)n2C
MGC-803 [1]
  inhibition at 20 µM: 19.8%
